Source: paper PMC9271048, “Probing strigolactone perception mechanisms with rationally designed small-molecule agonists stimulating germination of root parasitic weeds” (Nature Communications, 2022)

molecular target: T1, ShHTL7 (Striga hermonthica, UniProt A0A0M3PNA2); test: biochemical; format: binding; details: recombinant ShHTL7 immobilized on CM5 chip, 25 °C; read-out: KD (SPR)
Experimental: We used a sensitive, high-throughput Surface plasmon resonance (SPR) method to examine the binding affinities of the 51 candidates to the recombinant ShHTL7 protein, which was immobilized on the CM5 sensor chip. rac-GR24 was used as a positive control.
The interactions of small molecules with recombinant ShHTL7 were evaluated using the Biacore T200 system (GE Healthcare, USA) at 25 °C[47]. The purified ShHTL7 protein was immobilized on a CM5 sensor chip using the standard amine coupling procedure. […] PBS-P (10 mM phosphate buffer, 2.7 mM KCl, 137 mM NaCl, 0.05% Surfactant P20) containing 0.5% DMSO was used as the running buffer. For the screening experiments, candidates with different structures at 50 μM in the running buffer were injected individually at a flow rate of 30 μL min^−1. For binding affinity studies, compounds with different concentrations in running buffer were used. During the experiments, both the contact and dissociation times were set as 1 min. Data analysis was performed using the Biacore Evaluation Software (T200 Version 2.0). The affinity values (KD) were obtained by the kinetics analysis or the steady-state affinity method.

T1 sequence (A0A0M3PNA2 entry or part of it): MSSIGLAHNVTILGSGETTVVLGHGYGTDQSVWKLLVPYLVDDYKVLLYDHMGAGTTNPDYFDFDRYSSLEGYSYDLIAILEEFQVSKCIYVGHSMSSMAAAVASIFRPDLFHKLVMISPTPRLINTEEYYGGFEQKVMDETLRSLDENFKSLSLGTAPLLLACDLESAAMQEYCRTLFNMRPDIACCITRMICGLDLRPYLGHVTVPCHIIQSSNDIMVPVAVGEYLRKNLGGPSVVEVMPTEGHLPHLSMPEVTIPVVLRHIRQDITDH

Row | SMILES | Kd [µM]
1 | Cc1cc(Cl)ccc1OCC(=O)N1CCN(CC2CC3C=CC2C3)CC1 (stereo not drawn) [3e] | 0.65

molecular target: T1, ShHTL7; test: Competitive inhibition of ShHTL7 with Yoshimulactone Green (YLG) as substrate; format: biochemical; details: YLG used as the substrate; means ± SD, n = 3; read-out: IC50 (Supplementary Table 1)
Experimental: Based on the structural feature of the lead compound 2h, we selected three regions to perform further modification (Supplementary Fig. 6), to try to further improve bioactivity. Insertion of a carbonyl group between the bicyclo[2.2.1]hept-5-en-2-yl group and the piperazine ring was detrimental to binding affinity (Supplementary Fig. 6, region A). Removal of an oxygen atom in region B was found unfavorable to binding affinity as well. Therefore, we focused on modifying the benzene ring (region C) for 2h. A series of compounds with different groups at region C was synthesized (Supplementary Scheme 1). […] As SPR just measures the binding ability, another independent assay by using Yoshimulactone Green (YLG) as the fluorescent substrate was performed to determine the half-maximal inhibitory concentration (IC50) of these compounds against ShHTL7[22].
The excitation and emission wavelengths of YLG are 480 and 520 nm, respectively. We used a fluorescence spectrophotometer (CARY Eclipse) to detect the fluorescence intensity change of YLG during the enzymatic hydrolysis assay process. All the testing compounds and YLG were dissolved in DMSO and prepared as stock solutions just before use. […] The changes of fluorescence at 520 nm of each well were recorded every 1 min for 30 min. Using the reaction mixture without adding enzyme and tested compounds as the background control. After subtracting the background hydrolysis, a linear fluorescence increase in 8 min was used for further inspection. The IC50 values were determined via fitting relative inhibition percentages with the varying concentrations of compounds in Microsoft Excel.

Row | SMILES | IC50 [µM]
2 | Cc1ccc(OCC(=O)N2CCN(C(=O)C3CC4C=CC3C4)CC2)cc1 (stereo not drawn) [3a] | 35.6 ± 3.84
3 | Cc1ccc(CC(=O)N2CCN(CC3CC4C=CC3C4)CC2)cc1 (stereo not drawn) [3b] | 23.2 ± 1.59
4 | O=C(COc1ccc2ccccc2c1Br)N1CCN(CC2CC3C=CC2C3)CC1 (stereo not drawn) [3c] | 6.12 ± 0.34
5 | Cc1cc(Cl)ccc1OCC(=O)N1CCN(CC2CC3C=CC2C3)CC1 (stereo not drawn) [3e] | 8.28 ± 1.12
6 | Cc1cc([N+](=O)[O-])ccc1OCC(=O)N1CCN(CC2CC3C=CC2C3)CC1 (stereo not drawn) [3h] | 10 ± 0.59
7 | O=C(COc1ccc([N+](=O)[O-])cc1Cl)N1CCN(CC2CC3C=CC2C3)CC1 (stereo not drawn) [3i] | 11.6 ± 0.61
8 | O=C(COc1ccc(Cl)cc1Cl)N1CCN(CC2CC3C=CC2C3)CC1 (stereo not drawn) [3j] | 9.22 ± 0.35
9 | O=C(COc1cc(Cl)ccc1Cl)N1CCN(CC2CC3C=CC2C3)CC1 (stereo not drawn) [3k] | 32.2 ± 1.99
10 | O=C(COc1ccccc1)N1CCN(CC2CC3C=CC2C3)CC1 (stereo not drawn) [3l] | 18 ± 1.32
11 | Cc1ccccc1OCC(=O)N1CCN(CC2CC3C=CC2C3)CC1 (stereo not drawn) [3m] | 9.16 ± 1.2
12 | O=C(COc1ccc(C(F)(F)F)cc1)N1CCN(CC2CC3C=CC2C3)CC1 (stereo not drawn) [3n] | 12.8 ± 2.97
13 | O=C(COc1ccc(Cl)cc1)N1CCN(CC2CC3C=CC2C3)CC1 (stereo not drawn) [3o] | 22 ± 2.43
14 | O=C(COc1ccc([N+](=O)[O-])cc1)N1CCN(CC2CC3C=CC2C3)CC1 (stereo not drawn) [3p] | 15.6 ± 0.37
15 | CS(=O)(=O)c1ccc(OCC(=O)N2CCN(CC3CC4C=CC3C4)CC2)cc1 (stereo not drawn) [3q] | 24.1 ± 6.49
16 | Cc1ccc(CCC(=O)N2CCN(CC3CC4C=CC3C4)CC2)cc1 (stereo not drawn) [3r] | 34.2 ± 6.9

same assay, conditions: YLG used as the substrate; read-out: IC50 (Supplementary Table 1), symbol

Row | SMILES | IC50 [µM]
17 | C1=CC2CC1CC2CN1CCNCC1 (stereo not drawn) [ZJT1] | > 400

system: P. aegyptiaca seeds; test: P. aegyptiaca seed germination assay; format: in vivo, Phelipanche aegyptiaca; details: Supplementary Table 1; compounds tested at 10 μM; means ± SD, n = 3
Experimental: P. aegyptiaca seeds were harvested from Xinjiang province, China in 2017. The seeds were surface sterilized using 1% NaClO solution for 2 min and then washed with distilled water six times. For seed germination assay, about 20 pieces of glass fiber-filter paper discs (15 mm diameter, Whatman GF/B) were placed separately on two layers of filter papers (9 cm diameter, Whatman) in a Petri dish. Five milliliters of distilled water was added to each Petri dish to wet the papers. Approximately 40–90 sterilized seeds were spread onto each glass fiber-filter paper disc. After the seeds were conditioned in the dark at 25 °C for 4 days[48], glass fiber-filter paper discs were blotted dry on filter papers (9 cm) and transferred to the wells of 24-well cell culture plates. The testing compounds were dissolved in acetone and diluted with H2O (VH2O/Vacetone = 999/1) just before use[49]. rac-GR24 and 1‰ acetone solution were used as positive and negative controls, respectively. One hundred microliters of the test solution was added to each well of the plates, and all treatments were performed in three biological repeats. The plates were sealed and incubated in the dark at 25 °C for a week. The experiments were performed at least three times. The germinated seeds were observed by using an electronic magnifier at ×20 magnification.

Row | SMILES | P. aegyptiaca germination(%)
18 | Cc1ccc(OCC(=O)N2CCN(C(=O)C3CC4C=CC3C4)CC2)cc1 (stereo not drawn) [3a] | 19.4
19 | Cc1ccc(CC(=O)N2CCN(CC3CC4C=CC3C4)CC2)cc1 (stereo not drawn) [3b] | 8.9
20 | O=C(COc1ccc2ccccc2c1Br)N1CCN(CC2CC3C=CC2C3)CC1 (stereo not drawn) [3c] | 17.1
21 | Cc1cc(Cl)ccc1OCC(=O)N1CCN(CC2CC3C=CC2C3)CC1 (stereo not drawn) [3e] | 7.0
22 | Cc1cc([N+](=O)[O-])ccc1OCC(=O)N1CCN(CC2CC3C=CC2C3)CC1 (stereo not drawn) [3h] | 22.0
23 | O=C(COc1ccc([N+](=O)[O-])cc1Cl)N1CCN(CC2CC3C=CC2C3)CC1 (stereo not drawn) [3i] | 33.5
24 | O=C(COc1ccc(Cl)cc1Cl)N1CCN(CC2CC3C=CC2C3)CC1 (stereo not drawn) [3j] | 54.7
25 | O=C(COc1cc(Cl)ccc1Cl)N1CCN(CC2CC3C=CC2C3)CC1 (stereo not drawn) [3k] | 43.5
26 | O=C(COc1ccccc1)N1CCN(CC2CC3C=CC2C3)CC1 (stereo not drawn) [3l] | 26.3
27 | Cc1ccccc1OCC(=O)N1CCN(CC2CC3C=CC2C3)CC1 (stereo not drawn) [3m] | 29.7
28 | O=C(COc1ccc(C(F)(F)F)cc1)N1CCN(CC2CC3C=CC2C3)CC1 (stereo not drawn) [3n] | 47.8
29 | O=C(COc1ccc(Cl)cc1)N1CCN(CC2CC3C=CC2C3)CC1 (stereo not drawn) [3o] | 21.4
30 | O=C(COc1ccc([N+](=O)[O-])cc1)N1CCN(CC2CC3C=CC2C3)CC1 (stereo not drawn) [3p] | 18.6
31 | CS(=O)(=O)c1ccc(OCC(=O)N2CCN(CC3CC4C=CC3C4)CC2)cc1 (stereo not drawn) [3q] | 34.8
32 | Cc1ccc(CCC(=O)N2CCN(CC3CC4C=CC3C4)CC2)cc1 (stereo not drawn) [3r] | 34.2±6.9
33 | C1=CC2CC1CC2CN1CCNCC1 (stereo not drawn) [ZJT1] | 1.6
